Drawing on US8163740B2, “6-substituted benzoxazines” (Hoffmann-La Roche Inc., priority 2008, dated 2012), this text covers Ki for 13 compounds.

recombinant human 5-HT5A receptor, sequence (P47898 whole entry): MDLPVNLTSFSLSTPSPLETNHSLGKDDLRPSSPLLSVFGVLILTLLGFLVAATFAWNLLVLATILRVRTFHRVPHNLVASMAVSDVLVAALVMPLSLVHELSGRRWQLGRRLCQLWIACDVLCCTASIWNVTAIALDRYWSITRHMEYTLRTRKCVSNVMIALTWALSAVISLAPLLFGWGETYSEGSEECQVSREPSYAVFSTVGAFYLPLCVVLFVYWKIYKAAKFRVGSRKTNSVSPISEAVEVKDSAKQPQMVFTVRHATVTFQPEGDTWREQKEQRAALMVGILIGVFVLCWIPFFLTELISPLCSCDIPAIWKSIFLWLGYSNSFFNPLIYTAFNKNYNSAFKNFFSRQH

This assay deals with recombinant human 5-HT5A receptor (Homo sapiens, UniProt P47898). As to the kind of experiment: [3H]LSD radioligand binding assay. The conditions noted are these: [3H]LSD (approximately 1 nM); membranes from HEK-EBNA cells transiently expressing 5-HT5A; Ki by Cheng-Prussoff equation; read-out: Ki. The method, then:
A [^3H]LSD radioligand binding assay was used to determine the affinity of the compounds for the recombinant human 5-HT5A receptor, in membranes from transiently (cDNA) expressed 5-HT5A receptors in Human Embryonic Kidney-EBNA (HEK-EBNA) cells. Assay buffer consisted of Tris (50 mM) buffer containing 1 mM EGTA, 10 mM MgCl2 (pH 7.4) and 10 μM pargyline. The binding assay was carried out in 96-well-plates in the presence of [^3H]LSD (approximately 1 nM), approximately 2 μg/well of membrane protein, and 0.5 mg of Ysi-poly-1-lysine SPA beads in a final volume of 200 μl of buffer. Non-specific binding was defined using methiothepin 2 μM. Compounds were tested at 10 concentrations. All assays were conducted in duplicate and repeated at least two times. Assay plates were incubated for 120 min at room temperature before centrifugation. Bound ligand was determined using a Packard Topcount scintillation counter. IC50 values were calculated using a non-linear curve fitting program and Ki values calculated using the Cheng-Prussoff equation.
In general, Ki refers to a dissociation constant, usually derived from enzyme kinetics or from competition with a known ligand. Consider `O=C(Nc1ccc2c(c1)COC(NC1CCc3cc(F)ccc31)=N2)C1CC1` (racemic) [Example 20, rac-Cyclopropanecarboxylic acid [2-(5-fluoro-indan-1-ylamino)-4H-benzo[d][1,3]oxazin-6-yl]-amide], for which the Ki turned out to be 1.36 nM. With `COCC(=O)Nc1ccc2c(c1)COC(NC1CCc3cc(F)ccc31)=N2` (racemic) [Example 21, rac-N-[2-(5-Fluoro-indan-1-ylamino)-4H-benzo[d][1,3]oxazin-6-yl]-2-methoxy-acetamide] the figure was 5.5 nM; with `COc1cccc2c1C(NC1=Nc3ccc(N)cc3CO1)CCC2` (racemic) [Example 22, rac-N^2-(8-Methoxy-1,2,3,4-tetrahydro-naphthalen-1-yl)-4H-benzo[d][1,3]oxazine-2,6-diamine], 7.72 nM. Consider `COc1cccc2c1C(NC1=Nc3ccc(NC(=O)C4CC4)cc3CO1)CCC2` (racemic) [Example 23, rac-Cyclopropanecarboxylic acid [2-(8-methoxy-1,2,3,4-tetrahydro-naphthalen-1-ylamino)-4H-benzo[d][1,3]oxazin-6-yl]-amide], for which the Ki was 1.85 nM. With `COCC(=O)Nc1ccc2c(c1)COC(NC1CCc3cccc(OC)c31)=N2` (racemic) [Example 24, rac-2-Methoxy-N-[2-(7-methoxy-indan-1-ylamino)-4H-benzo[d][1,3]oxazin-6-yl]-acetamide] the figure was 4.83 nM; with `COc1cccc2c1C(NC1=Nc3ccc(NC(=O)C4CC4)cc3CO1)CC2` (racemic) [Example 25, rac-Cyclopropanecarboxylic acid [2-(7-methoxy-indan-1-ylamino)-4H-benzo[d][1,3]oxazin-6-yl]-amide], 1.06 nM.

With `Nc1ccc2c(c1)COC(NC1COc3cc(F)ccc31)=N2` (racemic) [Example 34, rac-N^2-(6-Fluoro-2,3-dihydro-benzofuran-3-yl)-4H-benzo[d][1,3]oxazine-2,6-diamine], the Ki is 4.26 nM.

`COCCNCC(=O)Nc1ccc2c(c1)COC(NC1COc3cc(F)ccc31)=N2` (racemic) [Example 42, rac-N-[2-(6-Fluoro-2,3-dihydro-benzofuran-3-ylamino)-4H-benzo[d][1,3]oxazin-6-yl]-2-(2-methoxy-ethylamino)-acetamide]: the Ki is 56.4 nM. As to `CC(C)(O)CNCC(=O)Nc1ccc2c(c1)COC(NC1COc3cc(F)ccc31)=N2` (racemic) [Example 43, rac-N-[2-(6-Fluoro-2,3-dihydro-benzofuran-3-ylamino)-4H-benzo[d][1,3]oxazin-6-yl]-2-(2-hydroxy-2-methyl-propylamino)-acetamide], the Ki is 50.3 nM. On to `CN1CCN(CC(=O)Nc2ccc3c(c2)COC(NC2COc4cc(F)ccc42)=N3)CC1` (racemic) [Example 44, rac-N-[2-(6-Fluoro-2,3-dihydro-benzofuran-3-ylamino)-4H-benzo[d][1,3]oxazin-6-yl]-2-(4-methyl-piperazin-1-yl)-acetamide], for which the Ki was determined as 6.5 nM. For `O=C(CN1CCOCC1)Nc1ccc2c(c1)COC(NC1COc3cc(F)ccc31)=N2` (racemic) [Example 45, rac-N-[2-(6-Fluoro-2,3-dihydro-benzofuran-3-ylamino)-4H-benzo[d][1,3]oxazin-6-yl]-2-morpholin-4-yl-acetamide] the value was 40.7 nM; for `COc1cccc2c1C(NC1=Nc3ccc(NS(=O)(=O)N(C)C)cc3CO1)CO2` (racemic) [Example 49, rac-N,N-(Dimethyl)-N′-{2-(4-Methoxy-2,3-dihydro-benzofuran-3-ylamino)-4H-benzo[d][1,3]oxazin-6-yl}-sulfamide], 21.1 nM; for `COc1cccc2c1C(NC1=Nc3ccc(NS(=O)(=O)N4CCCCC4)cc3CO1)CO2` (racemic) [Example 50, rac-Piperidine-1-sulfonic acid [2-(4-methoxy-2,3-dihydro-benzofuran-3-ylamino)-4H-benzo[d][1,3]oxazin-6-yl]-amide], 26.9 nM.
